Here are results for three compounds from patent US20240400571A1, “5,6 UNSATURATED BICYCLIC HETEROCYLES USEFUL AS INHIBITORS OF NOD-LIKE RECEPTOR PROTEIN 3” (Merck Sharp & Dohme LLC, priority 2023, published 2024).

The target of this assay is T1, NLRP3 inflammasome (Homo sapiens, UniProt Q96P20).
T1 construct: host or cells: THP-1 human monocytic cells, treated with PMA and stimulated with gramicidin
T1 sequence (Q96P20 whole entry): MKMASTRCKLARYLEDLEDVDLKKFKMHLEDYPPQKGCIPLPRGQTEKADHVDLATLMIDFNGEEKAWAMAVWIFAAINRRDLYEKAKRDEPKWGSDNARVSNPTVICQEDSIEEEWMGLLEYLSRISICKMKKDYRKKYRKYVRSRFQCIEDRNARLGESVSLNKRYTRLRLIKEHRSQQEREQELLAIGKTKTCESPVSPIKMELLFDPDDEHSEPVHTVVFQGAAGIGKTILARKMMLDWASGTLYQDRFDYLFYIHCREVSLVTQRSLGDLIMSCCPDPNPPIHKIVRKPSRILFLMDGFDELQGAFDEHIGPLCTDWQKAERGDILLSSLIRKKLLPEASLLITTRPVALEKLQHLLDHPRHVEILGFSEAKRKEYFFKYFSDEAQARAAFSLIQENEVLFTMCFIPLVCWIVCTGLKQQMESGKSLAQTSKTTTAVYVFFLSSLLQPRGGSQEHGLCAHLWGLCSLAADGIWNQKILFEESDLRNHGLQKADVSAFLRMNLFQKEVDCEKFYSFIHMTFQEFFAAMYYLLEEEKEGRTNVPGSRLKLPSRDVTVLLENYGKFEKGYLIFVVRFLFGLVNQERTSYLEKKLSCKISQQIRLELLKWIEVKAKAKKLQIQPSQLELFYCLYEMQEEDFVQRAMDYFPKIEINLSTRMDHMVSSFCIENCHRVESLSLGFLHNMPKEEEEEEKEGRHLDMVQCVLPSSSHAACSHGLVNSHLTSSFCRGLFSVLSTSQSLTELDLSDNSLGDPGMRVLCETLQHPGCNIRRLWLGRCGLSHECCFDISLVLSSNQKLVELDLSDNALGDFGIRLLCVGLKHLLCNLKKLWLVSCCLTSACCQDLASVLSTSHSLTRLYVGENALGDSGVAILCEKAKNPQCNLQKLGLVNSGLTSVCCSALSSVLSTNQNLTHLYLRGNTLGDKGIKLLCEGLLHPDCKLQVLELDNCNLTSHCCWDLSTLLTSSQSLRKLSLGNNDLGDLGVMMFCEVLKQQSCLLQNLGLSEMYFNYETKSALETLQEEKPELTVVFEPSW
The assay can be described thus: ASC-SPECK formation in THP-1 cells after gramicidin stimulation (NLRP3 inflammasome activation). As to conditions: PMA-treated human monocytic THP-1 cells; compound 1 h before 12.5 μg/ml gramicidin, 3-hour treatment; ASC SPECK imaging; read-out: EC50 values (nM) for Examples that inhibit NLRP3 inflammasome activation. Format: cell-based. As for the experimental part:
The ability of compounds to inhibit NLRP3 inflammasome activation was determined in vitro by monitoring formation of the ASC-SPECK in human monocytic THP-1 cells after stimulation. THP-1 cells (ATCC catalog #TIB-202) were maintained in complete growth media containing Roswell Park Memorial Institute RPMI (ATCC catalog #30-2001), 10% heat inactivated fetal bovine serum, 1× penicillin/streptomycin and 0.05 mM 2-mercaptoethanol. At the start of the assay, undifferentiated THP-1 cells were plated at a density of 20,000 cells per well in a 384-well plate (Poly-D-lysine coated Cell Carrier Ultra microplate, Perkin Elmer catalog #6057500) in complete growth media supplemented with 10 ng/ml phorbol 12-myristate 13-acetate (PMA; Sigma catalog #P8139), and then incubated overnight. The next day, media was replaced with assay media [RPMI (Gibco catalog #11875-093), 0.01% bovine serum albumin (BSA)]. Compounds were serially diluted in DMSO and then added to wells one hour prior to the addition of 12.5 μg/ml Gramicidin (Enzo Lifescience, catalog #ALX-350-233-M005). All incubations were carried out at 37° C. (5% CO2/95% air). Following a 3-hour treatment with gramicidin, cells are fixed with 4% paraformaldehyde and stored at 4° C. until immunofluorescence staining.
Immunofluorescence staining: Anti-ASC antibody (MBL catalog #D086-3) was desalted and labeled with Alexa 488 antibody labeling kit (Thermo catalog #A20181) prior to use as described below. After fixation, the following steps were carried out at room temperature. Cells were first permeabilized with 0.3% Triton X-100 in phosphate-buffered saline (PBS) for 15 minutes and then incubated in blocking buffer containing 5% goat serum, 0.3% tween-20 and 0.03% sodium azide in PBS for 1 hour. Cells were stained with a mixture of ASC-Alexa 488 antibody (diluted 1:200 in blocking buffer) and nuclear stain DRAQ5 (1:5000 in blocking buffer, Thermo catalog #62251) in blocking buffer for 1 hour. Following a wash with 0.3% Tween-20 in PBS, plates were imaged with an Opera Phenix High Content Screening System. The number of DRAQ5 positive cells containing ASC SPECKS were quantified in each well.
Data analysis: EC50 values were calculated by standard curve-fitting analysis using an internally developed program in TIBCO Spotfire software.
With `Cc1c(-c2ccc(C3CC3)c(F)c2O)nnc2c1ncn2[C@@H]1CCCN(C)C1` [Example 27, (R)-3-cyclopropyl-2-fluoro-6-(4-methyl-7-(1-methylpiperidin-3-yl)-7H-imidazo-[4,5-c]pyridazin-3-yl)phenol], the EC50 (in general, the concentration that produces a half-maximal response) came to 1530 nM. For `Cc1c(-c2ccc3sccc3c2O)nnc2c1ncn2[C@@H]1CCCN(C)C1` [Example 15, (R)-5-(4-methyl-7-(1-methylpiperidin-3-yl)-7H-imidazo[4,5-c]pyridazin-3-yl)benzo[b]thiophen-4-ol] the value was 61 nM; for `CCN1CCC[C@@H](n2cnc3c(C)c(-c4ccc(C(F)(F)F)cc4OC(F)F)nnc32)C1` [Example 9, (R)-3-(2-(difluoromethoxy)-4-(trifluoromethyl)phenyl)-7-(1-ethylpiperidin-3-yl)-4-methyl-7H-imidazo[4,5-c]pyridazine], 699 nM.
